In BindingDB's records for patent US12209081 (Katholieke Universiteit Leuven, 2025):

Target: Transient receptor potential cation channel subfamily M member 3 (UniProt J9SQF3)
Assay: Monitoring the TRPM3 Ion Channel Driven Ca2+ Uptake
Method: In order to monitor the inhibition of the mouse TRPM3α2 (mTRPM3) ion channel by the compounds of the invention, a cellular system making use of an mTRPM3alpha2 or hTRPM3 overexpressing cell line (flip-in HEK293) was used. The TRPM3 channel was stimulated/opened with Pregnenolone sulfate (PS) (50 μM) which results in Ca2+ influx. For mTRPM3, the intracellular Ca2+ was measured with a Calcium responsive dye. Fluor-4 AM ester (Invitrogen). Cells were cultured until a confluence of 80-90%, washed with Versene (Invitrogen) and detached from the surface by a short incubation with 0.05% Trypsin (Invitrogen). The trypsination process was stopped by the addition of complete cell culture medium (DMEM, glutamax, 10% FCS,NEAA,Pen-Strep). Cells were collected and resuspended in Krebs buffer without Calcium at RT. Prior the cell seeding (±2000 cells/well into a black, 384 well plate (Greiner)) the diluted compound was added in the assay plate, together with the PS dissolved in Krebs buffer containing Calcium. […] Directly after cell addition the plates were read on an Envision fluorescence reader (Perkin Elmer) by an Excitation of 485 nm and emission at 535 nm. Channel inhibition was calculated compared to a non-PS stimulated control versus a condition stimulated with PS (50 μM) with vehicle. The ability of the compounds of the invention to inhibit this activity was determined as: Percentage inhibition=[1-((RFU determined for sample with test compound present—RFU determined for sample with positive control inhibitor) divided by (RFU determined in the presence of vehicle—RFU determined for sample with positive control inhibitor))]*100.

Sequence of Transient receptor potential cation channel subfamily M member 3 (J9SQF3 whole entry): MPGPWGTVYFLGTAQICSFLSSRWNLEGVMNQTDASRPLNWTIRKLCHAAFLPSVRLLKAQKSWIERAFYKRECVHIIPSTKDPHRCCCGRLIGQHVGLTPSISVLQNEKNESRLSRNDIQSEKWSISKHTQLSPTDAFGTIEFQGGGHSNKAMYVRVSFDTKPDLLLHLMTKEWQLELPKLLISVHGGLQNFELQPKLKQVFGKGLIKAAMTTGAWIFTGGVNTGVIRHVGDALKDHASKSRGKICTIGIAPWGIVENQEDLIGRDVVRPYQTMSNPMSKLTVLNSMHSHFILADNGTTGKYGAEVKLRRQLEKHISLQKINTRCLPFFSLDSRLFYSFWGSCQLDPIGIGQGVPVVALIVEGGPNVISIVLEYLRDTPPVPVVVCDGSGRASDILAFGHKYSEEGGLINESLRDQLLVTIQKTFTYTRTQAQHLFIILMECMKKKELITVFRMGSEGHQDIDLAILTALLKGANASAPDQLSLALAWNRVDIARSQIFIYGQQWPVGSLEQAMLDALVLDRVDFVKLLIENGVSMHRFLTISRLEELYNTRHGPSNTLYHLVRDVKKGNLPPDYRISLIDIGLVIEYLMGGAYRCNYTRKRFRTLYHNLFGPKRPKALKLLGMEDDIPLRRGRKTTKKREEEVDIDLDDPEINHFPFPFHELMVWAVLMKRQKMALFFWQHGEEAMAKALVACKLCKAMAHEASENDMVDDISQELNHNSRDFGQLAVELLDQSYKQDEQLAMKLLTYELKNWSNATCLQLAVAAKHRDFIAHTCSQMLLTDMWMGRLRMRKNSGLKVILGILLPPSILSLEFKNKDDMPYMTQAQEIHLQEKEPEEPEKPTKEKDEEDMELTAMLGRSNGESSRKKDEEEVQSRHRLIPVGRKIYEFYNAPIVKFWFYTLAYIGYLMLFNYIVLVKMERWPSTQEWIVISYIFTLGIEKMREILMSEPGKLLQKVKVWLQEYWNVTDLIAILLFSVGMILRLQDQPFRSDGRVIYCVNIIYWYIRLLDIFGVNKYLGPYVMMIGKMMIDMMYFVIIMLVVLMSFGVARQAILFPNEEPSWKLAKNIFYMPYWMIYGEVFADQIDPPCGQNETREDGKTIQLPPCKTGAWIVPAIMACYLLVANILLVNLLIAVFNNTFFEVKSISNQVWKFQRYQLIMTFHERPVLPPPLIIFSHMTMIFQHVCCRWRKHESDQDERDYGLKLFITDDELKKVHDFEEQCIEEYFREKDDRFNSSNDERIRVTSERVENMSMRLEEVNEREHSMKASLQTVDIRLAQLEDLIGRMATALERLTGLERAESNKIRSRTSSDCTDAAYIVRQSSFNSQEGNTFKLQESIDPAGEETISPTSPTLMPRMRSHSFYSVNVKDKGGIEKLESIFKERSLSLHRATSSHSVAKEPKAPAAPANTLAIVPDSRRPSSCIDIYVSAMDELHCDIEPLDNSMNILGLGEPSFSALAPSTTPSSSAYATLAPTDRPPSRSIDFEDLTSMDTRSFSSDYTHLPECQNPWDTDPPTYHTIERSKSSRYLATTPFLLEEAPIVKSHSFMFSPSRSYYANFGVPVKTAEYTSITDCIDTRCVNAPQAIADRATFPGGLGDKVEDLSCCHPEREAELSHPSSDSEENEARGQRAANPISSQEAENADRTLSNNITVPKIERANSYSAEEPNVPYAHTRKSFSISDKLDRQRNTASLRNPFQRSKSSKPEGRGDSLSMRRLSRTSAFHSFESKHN

| IC50 | Compound |
| --- | --- |
| < 1000 nM | Cc1oc2ccc(OCc3cccnc3C#N)cc2c1C(=O)NC1(CO)CCOCC1 [US12209081, Compound 347] |
| < 1000 nM | Cc1nc(C)c(COc2ccc3oc(C)c(C(=O)N[C@H](CO)C(N)=O)c3c2)s1 [US12209081, Compound 458-En-2] |
| < 1000 nM | Cc1oc2ccc(OCc3cccnc3C(F)(F)F)cc2c1C(=O)NC1(CO)COC1 [US12209081, Compound 133] |
| < 1000 nM | Cc1oc2ccc(OCc3ccnn3CC(F)F)cc2c1C(=O)N[C@H](CO)C(N)=O [US12209081, Compound 456-En-2] |
| < 1000 nM | Cc1oc2ccc(OCc3cccnn3)cc2c1C(=O)NC1CCNC1=O (stereo not drawn) [US12209081, Compound 030] |
| < 1000 nM | Cc1ncsc1COc1ccc2oc(C)c(C(=O)NC3(CN)CCC3)c2c1 [US12209081, Compound 137] |
| > 20000 nM | Cc1oc2ccc(OCc3cncc(C(F)(F)F)c3)cc2c1C(=O)N[C@H]1CCNC1 [US12209081, Compound 055] |
| < 1000 nM | Cc1oc2ccc(OCc3cccnc3C(F)(F)F)cc2c1C(=O)Nc1cc[nH]n1 [US12209081, Compound 138] |
